Experimental findings from paper PMC11428593 (Antibiotics, 2024) are described below.

The term IC50 denotes the concentration that inhibits the measured activity by half. By MIC is commonly meant the lowest concentration found to suppress growth.

≈ marks a conversion by molar mass, not a printed value. Where “and” joins values, the source holds several entries; their conditions need not be identical. Equal entries are not always repeated. Where two headings read alike, the source gives them in different places. Some results are limits rather than exact numbers.

Test [1] relates to 3T3 mouse embryonic fibroblast cells. Put plainly: MTT cytotoxicity assay. Format: cell-based. To be noted: 3T3 cells; for IC50: Mus musculus, NIH3T3, 24 h. On the procedure:
To gauge the potential for toxicity of the new alkyl pyridinol derivates, we tested their cytotoxicity by examining the metabolic activity of 3T3 mouse embryonic fibroblast cells using the tetrazolium dye 3-(4,5-dimethylthiazol-2-yl)-2,5-diphenyltetrazolium bromide (MTT), as has been done before. The dye is reduced by NAD(P)H-dependent cellular oxidoreductases, resulting in the formation of the insoluble formazan with its purple color, which can be quantified. 3T3 cells were treated with different concentrations of the alkyl pyridinol compounds for 24 h, and the absorbance of the MTT-treated cell culture supernatant was measured at 540 nm. Absorbances were plotted against concentrations of the compound added (Supplementary Figure S2), and IC50, the concentration of a drug required for 50% metabolic inhibition, was calculated for each compound. […] However, the concentrations at which these compounds compromise 3T3 mouse embryonic fibroblast cells are well above their reported MICs (Table 2).
3T3 cells (male mouse embryonic fibroblast Flp-In cells, Thermo Fisher, Waltham, MA, USA) were cultured in D-MEM (Corning, Corning, NY, USA) supplemented with 10% Fetal Clone III (Cytiva Hyclone, Bengaluru, India) and L-Glutamine (Alfa Aesar, Haverhill, MA, USA) at 37 °C and 5% CO2. To determine the compound’s toxicity, 3T3 cells were seeded at a density of 10,000 cells/well into 96-well plates (Fisherbrand, Waltham, MA, USA) and cultured as described above. After 16 h, the culture medium was extracted and replaced by supplemented D-MEM without phenol red (Corning, Glendale, AZ, USA) containing individual compounds in the indicated concentrations. Furthermore, 1% sodium dodecyl sulfate (SDS) and 2% dimethyl sulfoxide (DMSO), equivalent to the volume of the DMSO in the highest compound concentration, were used as the cell death and vehicle control, respectively. Moreover, 16 h after compound treatment, the culture medium was extracted again and replaced by fresh supplemented D-MEM without phenol red. Subsequently, 10 µL of 5 mg/mL MTT reagent (Alfa Aesar, Haverhill, MA, USA), dissolved in DMSO, was added to each well, and the cells were incubated for 2 h at 37 °C and 5% CO2. Next, 85 µL of the culture supernatant was removed from each well, mixed with 50 µL of DMSO, and incubated in an optical grade 96-well plate (Fisherbrand, Waltham, MA, USA) in a shaking incubator at 37 °C and 250 rpm. The absorbance of the MTT-treated cell culture supernatant was measured at 540 nm in an ELx808 plate reader (Biotek, Winooski, VT, USA).
On the technique in general: Formazan colour is commonly taken as a measure of viable cells.

Test [2] concerns S. aureus ATCC 25923. Put plainly: MIC by broth microdilution (CLSI). Format: cell-based. The conditions noted are these: Staphylococcus aureus, ATCC25923, MHB, 37 °C, 16 h. The source says: (§1) To assess the impact of the nitrogen position in our newly synthesized anaephene derivates, we analyzed their antimicrobial activities against various S. aureus strains, including ATCC 25,923 and the two methicillin-resistant S. aureus (MRSA) strains ATCC 33,591 and ATCC BAA-44. […] We determined the minimum inhibitory concentrations (MIC) of each of our compounds against the different bacterial strains by broth microdilution following the CLSI guidelines. As expected, all five compounds tested were completely ineffective against the Gram-negative P. aeruginosa strain ATCC 27,853 (Table 1).
(§2) The MIC values of the alkyl pyridinol derivatives against the S. aureus strain ATCC 25923, MRSA strains ATCC 33591, ATCC BAA-44, and USA300LAC, as well as the P. aeruginosa strain ATCC 27853, were determined by following the CLSI guidelines for the broth microdilution antibiotic sensitivity testing protocol. In brief, the overnight cultures were diluted into Mueller Hinton Broth (MHB) to a final inoculum concentration of 5 × 10^5 CFU/mL (O.D600nm = 0.00001) and dispensed into a 96-well polystyrene plate (Alkali Scientific, Fort Lauderdale, FL, USA). Alkyl pyridine compounds were diluted into inoculated MHB to the indicated concentrations from stock solutions that would allow for DMSO concentrations below 5%, resulting in a total volume of 200 μL per well. The plates were subsequently incubated at 37 °C for 16 h at 300 rpm. The MIC values, which are defined as the lowest compound concentration that inhibited growth, were determined from three biological replicates.
(In general: Dilution methods test growth across graded concentrations, often in twofold steps.)

Test [3] concerns MRSA ATCC BAA-44. The test is described as follows: MIC by broth microdilution (CLSI). Format: cell-based. To be noted: Staphylococcus aureus, MHB, 37 °C, 16 h.
From the text: as §1, §2

The test system of test [4] is MRSA ATCC 33591. Put plainly: MIC by broth microdilution (CLSI). Format: cell-based. The conditions noted are these: Staphylococcus aureus, MHB, 37 °C, 16 h.
From the text: as §1, §2

Test [5] deals with P. aeruginosa ATCC 27853. The test is described as follows: MIC by broth microdilution (CLSI). Format: cell-based. The conditions noted are these: Pseudomonas aeruginosa, ATCC27853, MHB, 37 °C, 16 h.
From the text: as §1, §2

The test system of test [6] is S. aureus/MRSA strains. Put plainly: MIC by broth microdilution, S. aureus/MRSA strains. Format: cell-based, Staphylococcus aureus. To be noted: S. aureus/MRSA strains tested, strain not singled out.
From the text: as §1, §2

For test [7], the system named is USA300LAC cells. The test is described as follows: Propidium iodide uptake assay (membrane damage). Format: cell-based, Staphylococcus aureus. The source says: The alkyl pyridinol derivates synthesized in this study are characterized by high lipophilicity. To determine whether and to what extent these compounds incorporate into and disrupt the phospholipid bilayer of the S. aureus cell envelope, we performed a propidium iodide (PI) uptake assay. Given the membrane-impermeable nature of PI, the fluorophore can be used to assess membrane disruption in cells by measuring its non-specific interaction with DNA, which leads to enhanced fluorescence. […] The extent of membrane damage caused by JC-01-074 occurred in a dose-dependent manner.
Figure 4 JC-01-074 causes significant membrane damage in S. aureus. Membrane damage was evaluated via propidium iodide (PI) staining. […] Treatment of USA300LAC with 2.5% DMSO, 4 µg/mL vancomycin, and 0.25% SDS were included as negative and positive controls, respectively. Cells were collected, washed, resuspended in PBS, and stained with 1 µM PI. PI fluorescence was measured (exc./em. wavelengths: 535/615 nm) and normalized to OD600nm. One-way ANOVA, Dunnett’s multiple-comparison test (* p < 0.05, **** p < 0.0001); (n = 3, ±S.D.).
The plasma membrane integrity was determined using the Propidium Iodide Uptake assay, as previously described. Briefly, the overnight cultures of USA300LAC were diluted into fresh TSB media, grown to an early log phase at 37 °C and 300 rpm, and treated with either DMSO, an alkyl pyridinol derivate, vancomycin, or SDS at the indicated concentrations for 1 h. Following two washing steps, the cells were then resuspended in phosphate-buffered saline (PBS), pH = 7.4, and subsequently stained with 1 µM propidium iodide (PI). The PI fluorescence intensity was determined at an excitation wavelength of 535 nm and an emission wavelength of 615 nm.

Setting [8] is: 24 hours, one value per biological replicate, read-out: IC50 of single biological replicates (Figure S2).
Where [9] appears, read: 24 h treatment, mean ± S.D., read-out: IC50.
Setting [10] is: Staphylococcus aureus, MRSA, read-out: MIC.

As for `CCCCCCCCCC#Cc1cccc(O)n1` [JC-01-074], the “IC50 of single biological replicates (Figure S2)” value in test [1] (24 hours, one value per biological replicate, listed as JC-01-74) is 27.1 µg/ml and 26.7 µg/ml. Also, the IC50 amounted to 22.9 µg/mL in test [1] (setting [8]) and 104 ± 9.4 µM in test [1] (setting [9]). In addition, the MIC is 16 µg/mL (≈ 65.2 µM) in test [2]; 16 µg/mL (≈ 65.2 µM) in test [3]; 16 µg/mL (≈ 65.2 µM) in test [4]; above 128 µg/mL in test [5]; 16 µg/mL (≈ 65.2 µM) in test [6] (setting [10]). In addition, the “PI fluorescence compared to DMSO-treated control” value in test [7] (1 h treatment at MIC ([…] µg/mL)) was “about five-fold higher PI fluorescence”.
For the compound `CCCCCCCCCC#Cc1cncc(O)c1` [JC-01-072], in test [1] (24 hours, one value per biological replicate, listed as JC-01-72), the “IC50 of single biological replicates (Figure S2)” value was 41.1 µg/ml and 27.6 µg/ml and 35 µg/ml. Moreover, the results for the IC50 in test [1] (setting [8]) and in test [1] (setting [9]) were 47.1 µg/mL and 153 ± 33.8 µM, respectively. In addition, the MIC in test [2] was 4 µg/mL (≈ 16.3 µM); in test [3] it was 4 µg/mL (≈ 16.3 µM); in test [4], 4 µg/mL (≈ 16.3 µM); in test [5], above 128 µg/mL; in test [6] it was 4 to 8 µg/mL; in test [6] (setting [10]) it was 4 µg/mL (≈ 16.3 µM). For the same compound, the “changes in PI intensity” value in test [7] (up to 2× MIC, 1 h exposure) is recorded as “minimal changes”.
